Measured values published in patent publication US12258339B2, “Macrocyclic complexes of alpha-emitting radionuclides and their use in targeted radiotherapy of cancer” (Cornell University, priority 2018, dated 2025).

Assay: Stability of [^225Ac(macropa)]^+ in human serum
Format: in vitro ADME
Conditions: radio-TLC
Method: […]. [^225Ac(macropa)]^+ and [^225Ac(DOTA)]^− were prepared using 10^−5 M and 10^−3 M stock solutions (10 μL) of macropa and DOTA, respectively, to give final ligand concentrations of 5.9×10^−7 M (macropa) and 5.9×10^−5 M (DOTA). After confirming a radiochemical yield of >90% by TLC using 0.4 M sodium citrate (pH 4) containing 10% MeOH as the mobile phase, 160 μL of human serum (an equal volume based on labeling reaction volume) were added to each radiolabeled solution. A control solution was also prepared in which water was substituted for ligand. The solutions were monitored over the course of 8 days by iTLC. The plates were developed with EDTA (50 mM, pH 5) as the eluent. Under these conditions, [^225Ac(macropa)]^+ and [^225Ac(DOTA)]^− complexes remained at the baseline (RF=0) and any ^225Ac (^225Ac-EDTA) that had been transchelated by serum migrated with the solvent front (RF=1). Percent of complex remaining intact was calculated.
The long half-life of ^225Ac necessitates its stable complex retention in vivo to avoid off-target damage to normal tissues arising from the release of free ^225Ac^3+. Furthermore, the stability of ^225Ac complexes against transmetalation and transchelation needs to be high. To determine the kinetic inertness, [^225Ac(macropa)]^+ was challenged with La^3+ because of the established high affinity of macropa for this metal ion. […]

Compound: O=C([O-])c1cccc(CN2CCOCCOCCN(Cc3cccc(C(=O)[O-])n3)CCOCCOCC2)n1.[225Ac+3] [[^225Ac(macropa)]^+]
- time ^225Ac^3+ remains complexed in human serum: at least 8 days
